In patent US20260216176A1, “USE OF PCLX-001 OR PCLX-002 AS A RADIOSENSITIZER” (ACYLEX PHARMACEUTICALS INC., priority 2023, published 2026):
Where “and” joins values, the source holds several entries; their conditions need not be identical. Equal entries are not always repeated. Where two headings read alike, the source gives them in different places.

Assay: Plasma, brain and CSF pharmacokinetics and brain tissue accumulation in mice (LC-MS/MS)
Format: in vivo, male C57BL/6 mice

SMILES: Cc1c(N[S+](=O)(O)c2c(Cl)cc(-c3ccnc(N4CCNCC4)c3)cc2Cl)c(CC(C)C)nn1C [PCLX-001]
- Plasma Conc. (5 mg/kg oral, time point 0.00 h, individual animals): 0.00 nM
- concentration at 8 h (5 mg/kg oral, time point 0.00 h, individual animals, read-out: Brain Conc.): 0.00 nM
- concentration at 24 h (5 mg/kg oral, time point 0.00 h, individual animals, read-out: CSF Conc.): 0.00 nM
- Plasma Conc. (5 mg/kg oral, time point 0.25 h, individual animals): 6762.56 nM and 8570.40 nM
- concentration at 8 h (5 mg/kg oral, time point 0.25 h, individual animals, read-out: Brain Conc.): 73.74 nM and 86.13 nM
- concentration at 24 h (5 mg/kg oral, time point 0.25 h, individual animals, read-out: CSF Conc.): 11.50 nM and 3.78 nM and 7.47 nM
- Plasma Conc. (5 mg/kg oral, time point 0.50 h, individual animals): 8294.21 nM and 6591.89 nM
- concentration at 8 h (5 mg/kg oral, time point 0.50 h, individual animals, read-out: Brain Conc.): 122.31 nM and 138.42 nM
- concentration at 24 h (5 mg/kg oral, time point 0.50 h, individual animals, read-out: CSF Conc.): 4.19 nM and 2.89 nM
- Plasma Conc. (5 mg/kg oral, time point 1.00 h, individual animals): 9051.65 nM and 8883.32 nM
- concentration at 8 h (5 mg/kg oral, time point 1.00 h, individual animals, read-out: Brain Conc.): 54.48 nM and 64.47 nM
- concentration at 24 h (5 mg/kg oral, time point 1.00 h, individual animals, read-out: CSF Conc.): 2.72 nM and 8.67 nM and 3.50 nM
- Plasma Conc. (5 mg/kg oral, time point 2.00 h, individual animals): 5724.05 nM and 5659.43 nM
- concentration at 8 h (5 mg/kg oral, time point 2.00 h, individual animals, read-out: Brain Conc.): 185.79 nM and 81.69 nM and 204.51 nM
- concentration at 24 h (5 mg/kg oral, time point 2.00 h, individual animals, read-out: CSF Conc.): 7.26 nM and 15.58 nM and 16.86 nM
- Plasma Conc. (5 mg/kg oral, time point 4.00 h, individual animals): 13975.97 nM and 6234.47 nM and 11667.07 nM
- concentration at 8 h (5 mg/kg oral, time point 4.00 h, individual animals, read-out: Brain Conc.): 243.03 nM and 114.75 nM and 171.09 nM
- concentration at 24 h (5 mg/kg oral, time point 4.00 h, individual animals, read-out: CSF Conc.): 15.26 nM and 6.67 nM and 87.98 nM
- Plasma Conc. (5 mg/kg oral, time point 8.00 h, individual animals): 2821.68 nM and 6573.92 nM and 6832.35 nM
- concentration at 8 h (5 mg/kg oral, time point 8.00 h, individual animals, read-out: Brain Conc.): 135.06 nM and 148.56 nM
- concentration at 24 h (5 mg/kg oral, time point 8.00 h, individual animals, read-out: CSF Conc.): 30.28 nM and 5.97 nM and 7.19 nM
- Plasma Conc. (5 mg/kg oral, time point 24.00 h, individual animals): 6.38 nM and 4.10 nM
- concentration at 8 h (5 mg/kg oral, time point 24.00 h, individual animals, read-out: Brain Conc.): 0.00 nM and 8.13 nM and 12.81 nM
- concentration at 24 h (5 mg/kg oral, time point 24.00 h, individual animals, read-out: CSF Conc.): 0.00 nM
- time of peak brain drug concentrations (after oral administration): approximately 4 h
- concentration at 0.5 h (male, C57BL/6, mouse, CSF, oral, 5 mg/kg, 5 mg/kg oral, time point 0.50 h, individual animals, read-out: CSF Conc.): 3.44 nM
- concentration at 24 h (male, C57BL/6, mouse, CSF, oral, 5 mg/kg, 5 mg/kg oral, time point 24.00 h, individual animals, read-out: CSF Conc.): 0 nM
- Kp at 0.25 h (male, C57BL/6, mouse, brain and CSF, 5 mg/kg oral, time point 0.25 h, read-out: Brain/CSF-Kp): 13
- concentration at 0.25 h (male, C57BL/6, mouse, brain, oral, 5 mg/kg, 5 mg/kg oral, time point 0.25 h, individual animals, read-out: Brain Conc.): 135 nM
- concentration at 0.25 h (male, C57BL/6, mouse, brain, oral, 5 mg/kg, 5 mg/kg oral, time point 0.25 h, read-out: Mean Brain Conc.): 98.3 nM
- concentration at 0.5 h (male, C57BL/6, mouse, brain, oral, 5 mg/kg, 5 mg/kg oral, time point 0.50 h, individual animals, read-out: Brain Conc.): 108 nM
- concentration at 0.5 h (male, C57BL/6, mouse, brain, oral, 5 mg/kg, 5 mg/kg oral, time point 0.50 h, read-out: Mean Brain Conc.): 123 nM
- concentration at 1 h (male, C57BL/6, mouse, brain, oral, 5 mg/kg, 5 mg/kg oral, time point 1.00 h, individual animals, read-out: Brain Conc.): 75.5 nM
- concentration at 1 h (male, C57BL/6, mouse, brain, oral, 5 mg/kg, 5 mg/kg oral, time point 1.00 h, read-out: Mean Brain Conc.): 64.8 nM
- concentration at 2 h (male, C57BL/6, mouse, brain, oral, 5 mg/kg, 5 mg/kg oral, time point 2.00 h, read-out: Mean Brain Conc.): 157 nM
- concentration at 4 h (male, C57BL/6, mouse, brain, oral, 5 mg/kg, 5 mg/kg oral, time point 4.00 h, read-out: Mean Brain Conc.): 176 nM
- concentration at 8 h (male, C57BL/6, mouse, brain, oral, 5 mg/kg, 5 mg/kg oral, time point 8.00 h, individual animals, read-out: Brain Conc.): 79.3 nM
- concentration at 8 h (male, C57BL/6, mouse, brain, oral, 5 mg/kg, 5 mg/kg oral, time point 8.00 h, read-out: Mean Brain Conc.): 121 nM
- concentration at 24 h (male, C57BL/6, mouse, brain, oral, 5 mg/kg, 5 mg/kg oral, time point 24.00 h, read-out: Mean Brain Conc.): 6.98 nM
- Kp at 0.5 h (male, C57BL/6, mouse, brain/CSF, 5 mg/kg oral, time point 0.50 h, read-out: Brain/CSF-Kp): 35
- Kp at 1 h (male, C57BL/6, mouse, brain/CSF, 5 mg/kg oral, time point 1.00 h, read-out: Brain/CSF-Kp): 13.1
- Kp at 2 h (male, C57BL/6, mouse, brain/CSF, 5 mg/kg oral, time point 2.00 h, read-out: Brain/CSF-Kp): 11.9
- Kp at 4 h (male, C57BL/6, mouse, brain/CSF, 5 mg/kg oral, time point 4.00 h, read-out: Brain/CSF-Kp): 4.81
- Kp at 8 h (male, C57BL/6, mouse, brain/CSF, 5 mg/kg oral, time point 8.00 h, read-out: Brain/CSF-Kp): 8.35
- Kp at 0.25 h (male, C57BL/6, mouse, brain/plasma, 5 mg/kg oral, time point 0.25 h, read-out: B/P-Kp (brain to plasma ratio)): 0.01
- Kp at 0.5 h (male, C57BL/6, mouse, brain/plasma, 5 mg/kg oral, time point 0.50 h, read-out: B/P-Kp (brain to plasma ratio)): 0.02
- Kp at 1 h (male, C57BL/6, mouse, brain/plasma, 5 mg/kg oral, time point 1.00 h, read-out: B/P-Kp (brain to plasma ratio)): 0.01
- Kp at 2 h (male, C57BL/6, mouse, brain/plasma, 5 mg/kg oral, time point 2.00 h, read-out: B/P-Kp (brain to plasma ratio)): 0.02
- Kp at 4 h (male, C57BL/6, mouse, brain/plasma, 5 mg/kg oral, time point 4.00 h, read-out: B/P-Kp (brain to plasma ratio)): 0.02
- Kp at 8 h (male, C57BL/6, mouse, brain/plasma, 5 mg/kg oral, time point 8.00 h, read-out: B/P-Kp (brain to plasma ratio)): 0.02
- Kp at 24 h (male, C57BL/6, mouse, brain/plasma, 5 mg/kg oral, time point 24.00 h, read-out: B/P-Kp (brain to plasma ratio)): 1.24
- concentration at 0.25 h (male, C57BL/6, mouse, plasma, oral, 5 mg/kg, 5 mg/kg oral, time point 0.25 h, individual animals, read-out: Plasma Conc.): 9590 nM
- concentration at 0.25 h (male, C57BL/6, mouse, plasma, oral, 5 mg/kg, 5 mg/kg oral, time point 0.25 h, read-out: Mean Plasma Conc.): 8310 nM
- concentration at 0.5 h (male, C57BL/6, mouse, plasma, oral, 5 mg/kg, 5 mg/kg oral, time point 0.50 h, individual animals, read-out: Plasma Conc.): 4650 nM
- concentration at 0.5 h (male, C57BL/6, mouse, plasma, oral, 5 mg/kg, 5 mg/kg oral, time point 0.50 h, read-out: Mean Plasma Conc.): 6510 nM
- concentration at 1 h (male, C57BL/6, mouse, plasma, oral, 5 mg/kg, 5 mg/kg oral, time point 1.00 h, individual animals, read-out: Plasma Conc.): 7240 nM
- concentration at 1 h (male, C57BL/6, mouse, plasma, oral, 5 mg/kg, 5 mg/kg oral, time point 1.00 h, read-out: Mean Plasma Conc.): 8390 nM
- concentration at 2 h (male, C57BL/6, mouse, plasma, oral, 5 mg/kg, 5 mg/kg oral, time point 2.00 h, individual animals, read-out: Plasma Conc.): 9730 nM
- concentration at 2 h (male, C57BL/6, mouse, plasma, oral, 5 mg/kg, 5 mg/kg oral, time point 2.00 h, read-out: Mean Plasma Conc.): 7040 nM
- concentration at 4 h (male, C57BL/6, mouse, plasma, oral, 5 mg/kg, 5 mg/kg oral, time point 4.00 h, read-out: Mean Plasma Conc.): 10600 nM
- concentration at 8 h (male, C57BL/6, mouse, plasma, oral, 5 mg/kg, 5 mg/kg oral, time point 8.00 h, read-out: Mean Plasma Conc.): 5410 nM
- concentration at 24 h (male, C57BL/6, mouse, plasma, oral, 5 mg/kg, 5 mg/kg oral, time point 24.00 h, individual animals, read-out: Plasma Conc.): 6.39 nM
- concentration at 24 h (male, C57BL/6, mouse, plasma, oral, 5 mg/kg, 5 mg/kg oral, time point 24.00 h, read-out: Mean Plasma Conc.): 5.63 nM
- AUC(0-t) (male, C57BL/6, mouse, oral gavage 5 mg/kg, Brain): 2.15 µM·h
